Measured values published in ChEMBL document CHEMBL3580659, “One-pot multicomponent synthesis of indole incorporated thiazolylcoumarins and their antibacterial, anticancer and DNA cleavage studies” (2015).

How the values were obtained:
Format in all cases: functional
SNB-75 [1] = assay: Cytotoxicity against human SNB75 cells assessed as cell growth level at 100 uM after 48 hrs by sulforhodamine B assay
U-251 [2] = assay: Cytotoxicity against human U251 cells assessed as cell growth level at 100 uM after 48 hrs by sulforhodamine B assay
786-0 = assay: Cytotoxicity against human 786-0 cells assessed as cell growth level at 100 uM after 48 hrs by sulforhodamine B assay
ACHN = assay: Cytotoxicity against human ACHN cells assessed as cell growth level at 100 uM after 48 hrs by sulforhodamine B assay
DU-145 = assay: Cytotoxicity against human DU145 cells assessed as cell growth level at 100 uM after 48 hrs by sulforhodamine B assay
NCI-H23 [3] = assay: Cytotoxicity against human NCI-H23 cells assessed as cell growth level at 10 nM after 48 hrs by sulforhodamine B assay
UO-31 = assay: Cytotoxicity against human UO31 cells assessed as cell growth level at 10 nM after 48 hrs by sulforhodamine B assay
MDA-MB-231 [4] = assay: Cytotoxicity against human MDA-MB-231/ATCC cells assessed as cell growth level at 10 nM after 48 hrs by sulforhodamine B assay
A549 = assay: Cytotoxicity against human A549/ATCC cells assessed as cell growth level at 100 nM after 48 hrs by sulforhodamine B assay
NCI-H23 [5] = assay: Cytotoxicity against human NCI-H23 cells assessed as cell growth level at 100 nM after 48 hrs by sulforhodamine B assay
KM12 = assay: Cytotoxicity against human KM12 cells assessed as cell growth level at 100 nM after 48 hrs by sulforhodamine B assay
SF-539 = assay: Cytotoxicity against human SF539 cells assessed as cell growth level at 100 nM after 48 hrs by sulforhodamine B assay
MDA-MB-435 [6] = assay: Cytotoxicity against human MDA-MB-435 cells assessed as cell growth level at 100 nM after 48 hrs by sulforhodamine B assay
UACC-62 = assay: Cytotoxicity against human UACC62 cells assessed as cell growth level at 100 nM after 48 hrs by sulforhodamine B assay
OVCAR-3 [7] = assay: Cytotoxicity against human OVCAR3 cells assessed as cell growth level at 100 nM after 48 hrs by sulforhodamine B assay
NCI-H23 [8] = assay: Cytotoxicity against human NCI-H23 cells assessed as cell growth level at 10 uM after 48 hrs by sulforhodamine B assay
PC-3 [9] = assay: Cytotoxicity against human PC3 cells assessed as cell growth level at 100 nM after 48 hrs by sulforhodamine B assay
MDA-MB-231 [10] = assay: Cytotoxicity against human MDA-MB-231/ATCC cells assessed as cell growth level at 100 nM after 48 hrs by sulforhodamine B assay
NCI-H226 = assay: Cytotoxicity against human NCI-H226 cells assessed as cell growth level at 1 uM after 48 hrs by sulforhodamine B assay
HT-29 [11] = assay: Cytotoxicity against human HT-29 cells assessed as cell growth level at 1 uM after 48 hrs by sulforhodamine B assay
COLO 205 [12] = assay: Cytotoxicity against human COLO205 cells assessed as cell growth level at 10 uM after 48 hrs by sulforhodamine B assay
M14 = assay: Cytotoxicity against human M14 cells assessed as cell growth level at 10 uM after 48 hrs by sulforhodamine B assay
CAKI-1 = assay: Cytotoxicity against human CAKI-1 cells assessed as cell growth level at 10 uM after 48 hrs by sulforhodamine B assay
U-251 [13] = assay: Cytotoxicity against human U251 cells assessed as cell growth level at 1 uM after 48 hrs by sulforhodamine B assay
LOX IMVI = assay: Cytotoxicity against human LOXIMVI cells assessed as cell growth level at 1 uM after 48 hrs by sulforhodamine B assay
SK-MEL-5 = assay: Cytotoxicity against human SK-MEL-5 cells assessed as cell growth level at 1 uM after 48 hrs by sulforhodamine B assay
OVCAR-3 [14] = assay: Cytotoxicity against human OVCAR3 cells assessed as cell growth level at 1 uM after 48 hrs by sulforhodamine B assay
BT-549 = assay: Cytotoxicity against human BT549 cells assessed as cell growth level at 1 uM after 48 hrs by sulforhodamine B assay
SR = assay: Cytotoxicity against human SR cells after 48 hrs by sulforhodamine B assay
HT-29 [15] = assay: Cytotoxicity against human HT-29 cells after 48 hrs by sulforhodamine B assay; conditions: HT-29, 48 h
SF-295 = assay: Cytotoxicity against human SF295 cells after 48 hrs by sulforhodamine B assay; conditions: SF-295, 48 h
SNB-75 [16] = assay: Cytotoxicity against human SNB75 cells after 48 hrs by sulforhodamine B assay; conditions: SNB-75, 48 h
COLO 205 [17] = assay: Cytotoxicity against human COLO205 cells assessed as cell growth level at 100 uM after 48 hrs by sulforhodamine B assay
MDA-MB-435 [18] = assay: Cytotoxicity against human MDA-MB-435 cells after 48 hrs by sulforhodamine B assay; conditions: MDA-MB-435, 48 h
OVCAR-3 [19] = assay: Cytotoxicity against human OVCAR3 cells after 48 hrs by sulforhodamine B assay; conditions: OVCAR-3, 48 h
A498 = assay: Cytotoxicity against human A498 cells after 48 hrs by sulforhodamine B assay; conditions: A498, 48 h
PC-3 [20] = assay: Cytotoxicity against human PC3 cells after 48 hrs by sulforhodamine B assay; conditions: PC-3, 48 h
[21] = read-out: LC50 (the source's name)
[22] = read-out: pLC50 (the source's name) (converted)

## O=c1oc2ccccc2cc1-c1csc(N/N=C/c2c[nH]c3ccccc23)n1
SNB-75 [1]
  Activity: -53%
U-251 [2]
  Activity: -89%
786-0
  Activity: -27%
ACHN
  Activity: -45%
DU-145
  Activity: -2%
NCI-H23 [3]
  Activity: 86%
UO-31
  Activity: 97%
MDA-MB-231 [4]
  Activity: 97%
A549
  Activity: 92%
NCI-H23 [5]
  Activity: 88%
KM12
  Activity: 98%
SF-539
  Activity: 88%
MDA-MB-435 [6]
  Activity: 99%
UACC-62
  Activity: 96%
OVCAR-3 [7]
  Activity: 90%
NCI-H23 [8]
  Activity: 25.93%
PC-3 [9]
  Activity: 102%
MDA-MB-231 [10]
  Activity: 97%
NCI-H226
  Activity: 101%
HT-29 [11]
  Activity: 89%
COLO 205 [12]
  Activity: 28.15%
M14
  Activity: 34.19%
CAKI-1
  Activity: -41.32%
U-251 [13]
  Activity: 103%
LOX IMVI
  Activity: 74%
SK-MEL-5
  Activity: 90%
OVCAR-3 [14]
  Activity: 61%
BT-549
  Activity: 58%
SR; read-out: GI50
  GI50: 1.83 µM
SR; read-out: LC50
  LC50: > 100 µM
SR; read-out: TGI
  TGI: 4.92 µM
SR; read-out: pGI50 (converted)
  GI50: 1.82 µM
SR; read-out: pLC50 (converted)
  LC50: > 100 µM
SR; read-out: pTGI (converted)
  TGI: 4.9 µM
HT-29 [15]; read-out: GI50
  GI50: 2.01 µM
HT-29 [15]; [21]
  CC50: > 100 µM
HT-29 [15]; read-out: TGI
  TGI: 5.55 µM
HT-29 [15]; read-out: pGI50 (converted)
  GI50: 2 µM
HT-29 [15]; [22]
  CC50: > 100 µM
HT-29 [15]; read-out: pTGI (converted)
  TGI: 5.5 µM
SF-295; read-out: GI50
  GI50: 2.23 µM
SF-295; [21]
  CC50: > 100 µM
SF-295; read-out: TGI
  TGI: 6.76 µM
SF-295; read-out: pGI50 (converted)
  GI50: 2.24 µM
SF-295; [22]
  CC50: > 100 µM
SF-295; read-out: pTGI (converted)
  TGI: 6.76 µM
SNB-75 [16]; read-out: GI50
  GI50: 2 µM
SNB-75 [16]; [21]
  CC50: > 100 µM
SNB-75 [16]; read-out: TGI
  TGI: 8.92 µM
SNB-75 [16]; read-out: pGI50 (converted)
  GI50: 2 µM
SNB-75 [16]; [22]
  CC50: > 100 µM
SNB-75 [16]; read-out: pTGI (converted)
  TGI: 8.91 µM
COLO 205 [17]
  Activity: -36%
MDA-MB-435 [18]; read-out: GI50
  GI50: 2.1 µM
MDA-MB-435 [18]; [21]
  CC50: 25.2 µM
MDA-MB-435 [18]; read-out: TGI
  TGI: 5.47 µM
MDA-MB-435 [18]; read-out: pGI50 (converted)
  GI50: 2.09 µM
MDA-MB-435 [18]; [22]
  CC50: 25.1 µM
MDA-MB-435 [18]; read-out: pTGI (converted)
  TGI: 5.5 µM
OVCAR-3 [19]; read-out: GI50
  GI50: 1.16 µM
OVCAR-3 [19]; [21]
  CC50: 7.31 µM
OVCAR-3 [19]; read-out: TGI
  TGI: 2.91 µM
OVCAR-3 [19]; read-out: pGI50 (converted)
  GI50: 1.15 µM
OVCAR-3 [19]; [22]
  CC50: 7.24 µM
OVCAR-3 [19]; read-out: pTGI (converted)
  TGI: 2.88 µM
A498; read-out: GI50
  GI50: 2.21 µM
A498; [21]
  CC50: > 100 µM
A498; read-out: TGI
  TGI: 8.2 µM
A498; read-out: pGI50 (converted)
  GI50: 2.19 µM
A498; [22]
  CC50: > 100 µM
A498; read-out: pTGI (converted)
  TGI: 8.13 µM
PC-3 [20]; read-out: GI50
  GI50: 0.828 µM
PC-3 [20]; [21]
  CC50: 7.63 µM
PC-3 [20]; read-out: TGI
  TGI: 2.66 µM
PC-3 [20]; read-out: pGI50 (converted)
  GI50: 0.832 µM
PC-3 [20]; [22]
  CC50: 7.59 µM
PC-3 [20]; read-out: pTGI (converted)
  TGI: 2.63 µM
